Experimental data: PubChem BioAssay (NCI)
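How tested: cells in 96-well plates exposed to compound for 48 hours at five concentrations. The concentration for 50% growth inhibition is given as GI50. Definition used: TGI = concentration required for complete inhibition of growth.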

Tests used:
Test in all cases: NCI anticancer screen, dose series, 48 h
HCT-15 colon = system: HCT-15 colon
K-562 leukemia = system: K-562 leukemia
MDA-MB-435 = system: MDA-MB-435
SF-268 CNS = system: SF-268 CNS
SF-539 CNS = system: SF-539 CNS
SK-MEL-28 melanoma = system: SK-MEL-28 melanoma
SK-OV-3 ovarian = system: SK-OV-3 ovarian
SNB-19 CNS = system: SNB-19 CNS
TK-10 renal = system: TK-10 renal
HS 578T breast = system: HS 578T breast

Row | SMILES | GI50 (HCT-15 colon) | TGI (HCT-15 colon) | GI50 (K-562 leukemia) | TGI (K-562 leukemia) | GI50 (MDA-MB-435) | TGI (MDA-MB-435) | GI50 (SF-268 CNS) | TGI (SF-268 CNS) | GI50 (SF-539 CNS) | TGI (SF-539 CNS) | GI50 (SK-MEL-28 melanoma) | TGI (SK-MEL-28 melanoma) | GI50 (SK-OV-3 ovarian) | TGI (SK-OV-3 ovarian) | GI50 (SNB-19 CNS) | TGI (SNB-19 CNS) | GI50 (TK-10 renal) | TGI (TK-10 renal) | GI50 (HS 578T breast) | TGI (HS 578T breast)
1 | CCN(CC)CCCC(Cc1ccccc1)Nc1c2ccc(Cl)cc2nc2ccc(OC)cc12 (stereo not drawn) | 1.88 µM | 4.72 µM | 1070 nM | 2.89 µM | 1.5 µM | 2890 nM | 2140 nM | 5.84 µM | 1700 nM | 3.33 µM | 1840 nM | 3.59 µM | 4.09 µM | 13.9 µM | 2.56 µM | 7.17 µM | 1.68 µM | 3.31 µM |  | 
2 | COc1ccc(NC(=O)CC(=O)N2N=C(N(CCC#N)c3cccc(C)c3)CC2c2ccccc2)cc1 (stereo not drawn) |  | > 100 µM |  | > 100 µM |  |  |  | > 100 µM |  | > 100 µM |  | > 100 µM |  | > 100 µM |  | > 100 µM |  |  |  | 
3 | CC(C)n1c(=O)n(C)c2cnc3cc(F)c(-c4ccc(OCCCN5CCCCC5)nc4)cc3c21 | 11.1 µM | 31.5 µM |  |  | 17 µM | 71400 nM | 11900 nM | 40.2 µM | 8380 nM | 22.9 µM | 13500 nM | 32.4 µM | 10.8 µM | 73.8 µM | 17.4 µM | 77.5 µM | 11.3 µM | 45.4 µM | 3.33 µM | 18.1 µM
4 | CC1=NC(C(C)C)C(=O)O1 (stereo not drawn) |  | > 100 µM |  | > 100 µM |  |  |  | > 100 µM |  | > 100 µM |  | > 100 µM |  | > 100 µM |  | > 100 µM |  | > 100 µM |  | 
5 | CC(=O)c1ccc(NC(=O)C(=O)C(C(=O)c2ccc(Cl)c(Cl)c2)C2OC(=O)c3ccccc32)cc1 (stereo not drawn) |  | 34.7 µM |  | > 100 µM |  |  |  | 38.2 µM |  |  |  |  |  | > 100 µM |  | > 100 µM |  | > 100 µM |  | 
6 | O=C1c2cc([N+](=O)[O-])cc3cc([N+](=O)[O-])cc(c23)C(=O)N1CCCNCCNCCCN1C(=O)c2cc([N+](=O)[O-])cc3cc([N+](=O)[O-])cc(c23)C1=O |  | > 30.6 µM |  | 14.9 µM |  |  |  | 2.03 µM |  | 1.26 µM |  | 2.11 µM |  | 8.48 µM |  | > 23.3 µM |  | 7.04 µM |  | 
7 | COC(=O)C1=C(CS(=O)c2ccc([N+](=O)[O-])cc2[N+](=O)[O-])ON(C)C1c1ccccc1 (stereo not drawn) |  | > 78.9 µM |  | 34.5 µM |  |  |  | > 100 µM |  | 56.2 µM |  | > 100 µM |  | > 100 µM |  | > 87.9 µM |  | > 74.8 µM |  | 
8 | O=C(c1nc2ccc(Cl)cc2[nH]c1=O)C(O)c1ccc2c(c1)OCO2 (stereo not drawn) |  |  |  | > 100 µM |  |  |  | > 100 µM |  |  |  | > 100 µM |  | > 100 µM |  |  |  | > 100 µM |  | 
9 | CCC[CH2][Sn]1([CH2]CCC)[O]CC(CN2CCOCC2)[O]1 (stereo not drawn) | 6.4 µM | 18.6 µM | 2430 nM | 9.16 µM |  |  | 1790 nM | 5.52 µM | 2960 nM | 8.59 µM | 2890 nM | 11.3 µM | 12.3 µM | 25.8 µM | 7.65 µM | 19.6 µM | 4.02 µM | 12.1 µM |  | 
10 | Oc1ccc(-c2cn3cc(Cl)sc3n2)cc1 | > 100 µM | > 100 µM | 36700 nM | > 100 µM | 32.3 µM | > 100000 nM | 12200 nM | 80.2 µM | > 100000 nM | > 100 µM |  |  |  |  | 58.8 µM | > 100 µM | 40.4 µM | 84.9 µM | > 100 µM | > 100 µM
11 | CCOC(=O)N[C@@H]1C2CC(=O)C(O2)[C@@H]1OC (stereo partly drawn) |  | > 100 µM |  | > 100 µM |  |  |  | > 100 µM |  | > 100 µM |  | > 100 µM |  | > 100 µM |  | > 100 µM |  | > 100 µM |  | 
12 | COC1OC(COS(=O)(=O)c2ccc(C)cc2)C(O)C(OS(=O)(=O)c2ccc(C)cc2)C1OS(=O)(=O)c1ccc(C)cc1 (stereo not drawn) |  | > 100 µM |  | > 100 µM |  |  |  | > 100 µM |  | > 100 µM |  | > 100 µM |  | > 100 µM |  | > 100 µM |  |  |  | 
13 | CCOC(=O)C(C(=O)OCC)=C1N[C@H](C(=O)OCC)CS1 |  | > 100 µM |  | > 100 µM |  |  |  | > 100 µM |  | > 100 µM |  | > 100 µM |  |  |  | > 100 µM |  |  |  | 
14 | COc1ccc(-c2nc(N3CCOCC3)c3sc(CN(C)c4ncc(C(=O)NO)cn4)cc3n2)cn1 |  |  | < 10 nM | > 100 µM | < 0.01 µM | 28.4 nM | 17.8 nM | 0.204 µM | 10.1 nM | 0.161 µM | 12.9 nM | 0.136 µM |  |  | < 0.01 µM | 0.0907 µM |  |  | < 0.0122 µM | 0.155 µM
15 | CCCc1nc(NC#N)nc(C(=O)NC23CC4CC(CC(C4)C2)C3)c1C |  | > 100 µM |  | > 100 µM |  |  |  | > 100 µM |  | > 100 µM |  | > 100 µM |  | > 100 µM |  | > 100 µM |  | > 100 µM |  | 
